Test results published in paper PMC7028431 (Science (New York, N.Y.), 2019).

Target: GluER (Gluconobacter oxydans, UniProt Q5FTL6, T36A)
Assay: UV-visible spectrum of reduced enzyme
Type: binding
Conditions: dithionite reduction

SMILES: Cc1cc2c(cc1C)N(C[C@H](O)[C@H](O)[C@H](O)COP(=O)(O)O)c1[nH]c(=O)[nH]c(=O)c1N2 [FMNhq]
- UV-visible spectrum of reduced enzyme: UV-visible spectrum of reduced GluER-T36A (FMNhq)
